Like-named read-outs stand apart in the source and are kept apart here.
Key:
[1] = human, in vivo
[2] = tested on: pediatric subjects 2 to <17 years
[3] = human, in vivo; remark: listed apart in the source
[4] = tested on: pediatric subjects 12 to <24 months; conditions: in vivo
[5] = for CL, Predicted Typical Value / Volume of Distribution, Predicted Typical Value / Weight-Adjusted CL, Predicted Typical Value / Weight-Adjusted V, Predicted Typical Value: model-predicted
clinical [6] = conditions: human, in vivo
clinical [7] = conditions: human, in vivo; remark: listed apart in the source
[8] = cited from earlier work
[9] = Group I, Dose Level 1, LD 0.25/CD 0.2 μg/kg/hr, N = 8, safety population
[10] = Group I, Dose Level 2, LD 0.50/CD 0.4 μg/kg/hr, N = 6, safety population
[11] = Group I, Dose Level 3, LD 1.00/CD 0.7 μg/kg/hr, N = 6, safety population
[12] = Group I, Dose Level 4, LD 1.00/CD 2.00 μg/kg/hr, N = 6, safety population
[13] = Group II, Dose Level 1, LD 0.25/CD 0.2 μg/kg/hr, N = 8, safety population
[14] = Group II, Dose Level 2, LD 0.50/CD 0.4 μg/kg/hr, N = 8, safety population
[15] = Group II, Dose Level 3, LD 1.00/CD 0.7 μg/kg/hr, N = 9, safety population
[16] = Group II, Dose Level 4, LD 1.00/CD 2.00 μg/kg/hr, N = 8, safety population
[17] = final population PK model, Examples 5, 3, 1 and 7

For `Cc1cccc([C@H](C)c2cnc[nH]2)c1C` [dexmedetomidine], the “AUC (0-Infinity)Dose” value [1] was 2102.55 (n = 2) (pg/mL)hr/μg, the “AUC (0-Last)” value [1] was 813.26 (pg/mL)hr and the Vdw [1] was 3.47 (n = 2) L/kg. The “dose-adjusted AUC (0-Infinity), additional cohort versus age group II” value [1] was 4.6 times higher, the t1/2 [1] was 8 h and the “Drug-related TEAE: Bradycardia” value [2, 9] was 0 n (%). For the same compound, the “Drug-related TEAE: Hypertension” value [2, 9] was 0 n (%), the “Drug-related TEAE: Hypotension” value [2, 9] was 0 n (%) and the “Drug-related TEAE: Sedation” value [2, 9] was 0 n (%). The “Number of Drug-related TEAE” value [2, 9] was 0, the “Subjects with at least 1 Drug-Related TEAE” value [2, 9] was 0 n (%) and the “Drug-related TEAE: Bradycardia” value [2, 10] was 0 n (%). The “Drug-related TEAE: Hypertension” value [2, 10] was 0 n (%), the “Drug-related TEAE: Hypotension” value [2, 10] was 0 n (%) and the “Drug-related TEAE: Sedation” value [2, 10] was 0 n (%). The “Number of Drug-related TEAE” value [2, 10] was 0, the “Subjects with at least 1 Drug-Related TEAE” value [2, 10] was 0 n (%) and the “Drug-related TEAE: Bradycardia” value [2, 11] was 1 (16.7) n (%). The “Drug-related TEAE: Hypertension” value [2, 11] was 1 (16.7) n (%), the “Drug-related TEAE: Hypotension” value [2, 11] was 0 n (%) and the “Drug-related TEAE: Sedation” value [2, 11] was 0 n (%). For the same compound, the “Number of Drug-related TEAE” value [2, 11] was 2, the “Subjects with at least 1 Drug-Related TEAE” value [2, 11] was 1 (16.7) n (%) and the “Drug-related TEAE: Bradycardia” value [2, 12] was 1 (16.7) n (%). The “Drug-related TEAE: Hypertension” value [2, 12] was 0 n (%), the “Drug-related TEAE: Hypotension” value [2, 12] was 1 (16.7) n (%) and the “Drug-related TEAE: Sedation” value [2, 12] was 2 (33.3) n (%). The “Number of Drug-related TEAE” value [2, 12] was 4, the “Subjects with at least 1 Drug-Related TEAE” value [2, 12] was 4 (66.7) n (%) and the “Drug-related TEAE: Bradycardia” value [2, 13] was 0 n (%). The “Drug-related TEAE: Chills” value [2, 13] was 0 n (%), the “Drug-related TEAE: Hypertension” value [2, 13] was 0 n (%) and the “Drug-related TEAE: Sedation” value [2, 13] was 0 n (%). The “Number of Drug-related TEAE” value [2, 13] was 0, the “Subjects with at least 1 Drug-Related TEAE” value [2, 13] was 0 n (%) and the “Drug-related TEAE: Bradycardia” value [2, 14] was 0 n (%). For the same compound, the “Drug-related TEAE: Chills” value [2, 14] was 0 n (%), the “Drug-related TEAE: Hypertension” value [2, 14] was 0 n (%) and the “Drug-related TEAE: Sedation” value [2, 14] was 0 n (%). For the same compound, the “Number of Drug-related TEAE” value [2, 14] was 0, the “Subjects with at least 1 Drug-Related TEAE” value [2, 14] was 0 n (%) and the “Drug-related TEAE: Bradycardia” value [2, 15] was 1 (11.1) n (%). For the same compound, the “Drug-related TEAE: Chills” value [2, 15] was 1 (11.1) n (%), the “Drug-related TEAE: Hypertension” value [2, 15] was 1 (11.1) n (%) and the “Drug-related TEAE: Sedation” value [2, 15] was 0 n (%). The “Number of Drug-related TEAE” value [2, 15] was 3, the “Subjects with at least 1 Drug-Related TEAE” value [2, 15] was 2 (22.2) n (%) and the “Drug-related TEAE: Bradycardia” value [2, 16] was 0 n (%). The “Drug-related TEAE: Chills” value [2, 16] was 0 n (%), the “Drug-related TEAE: Hypertension” value [2, 16] was 3 (37.5) n (%) and the “Drug-related TEAE: Sedation” value [2, 16] was 1 (12.5) n (%). For the same compound, the “Number of Drug-related TEAE” value [2, 16] was 4, the “Subjects with at least 1 Drug-Related TEAE” value [2, 16] was 4 (50.0) n (%) and the “treatment-related TEAE: chills” value ([2]; human, in vivo) was 1 subjects. The “treatment-related TEAE: hypotension” value ([2]; human, in vivo) was 1 subjects, the deaths ([2]; safety population) was “No deaths” and the “CL, predicted” value [3] was 47.8 L/h. The “Exponent of power relationship between Q and age, Population Mean” value [3] was −0.509, the “IIV in Q” value [3] was 117 % CV and the “Proportional shift in allometric exponent for Vc for neonates, Population Mean” value [3] was 0.513. For the same compound, the “Q, model value” [3] was 68.21 L/h, the “Slope of linear age effect on Vp, Population Mean” value [3] was −1.43 L/y and the “Vc, model value” [3] was 6.22 L. The “Vp, model value” [3] was 13.21 L, the “interindividual variability in CL, Vc, and Vp” value [3] was 35-55 % CV and the “terminal elimination (β) half-life” value [3] was 1.8 h. For the same compound, the “unexplained interindividual variability (IIV) in Q” value [3] was 163 % CV, the “volume of distribution, predicted” value [3] was 114.6 L and the “subjects with treatment-emergent adverse events” value ([4]; human) was 20.0%. The safety and tolerability [4] was “safe and well tolerated”, the “Magnitude of Interindividual Variability in Vc, final estimate” value ([5]; final population PK model) was 53.76 % CV and the “Exponent for power function effect of age on Q (population mean)” value [5, 17] was −0.342. For the same compound, the “Exponent for power function effect of age on Vp (population mean)” value [5, 17] was −0.280, the “Inter-compartmental CL (Q) (population mean)” value [5, 17] was 63.5 L/h and the “Vc, volume of the central compartment (population mean)” value [5, 17] was 8.49 L. For the same compound, the “Vp, volume of the peripheral compartment (population mean)” value [5, 17] was 14.7 L, the “Magnitude of Interindividual Variability in CL, final estimate” value ([5]; final population PK model, cell spans CL rows) was 37.01 % CV and the “Magnitude of Interindividual Variability in Q, final estimate” value ([5]; final population PK model, cell spans Q rows) was 161.25 % CV. For the same compound, the “Magnitude of Interindividual Variability in Vp, final estimate” value ([5]; final population PK model, cell spans Vp rows) was 51.19 % CV, the “CL, Predicted Typical Value” ([5]; 1 month-<6 months) was 7.51 L/h and the “Volume of Distribution, Predicted Typical Value” (shortened to “Volume … Predicted Typical Value”) ([5]; 1 month-<6 months) was 18.75 L. The “Weight-Adjusted CL, Predicted Typical Value” ([5]; 1 month-<6 months) was 20.9 mL/min/kg, the “Weight-Adjusted V, Predicted Typical Value” ([5]; 1 month-<6 months) was 3.133 L/kg and the “CL, Predicted Typical Value” ([5]; 2 y-<6 y) was 14.01 L/h. The “Volume … Predicted Typical Value” ([5]; 2 y-<6 y) was 28.09 L, the “Weight-Adjusted CL, Predicted Typical Value” ([5]; 2 y-<6 y) was 16.98 mL/min/kg and the “Weight-Adjusted V, Predicted Typical Value” ([5]; 2 y-<6 y) was 2.043 L/kg. The “CL, Predicted Typical Value” ([5]; 6 months-<12 months) was 8.69 L/h, the “Volume … Predicted Typical Value” ([5]; 6 months-<12 months) was 19.95 L and the “Weight-Adjusted CL, Predicted Typical Value” ([5]; 6 months-<12 months) was 19.92 mL/min/kg. The “Weight-Adjusted V, Predicted Typical Value” ([5]; 6 months-<12 months) was 2.742 L/kg, the “CL, Predicted Typical Value” ([5]; 6 y-<17 y) was 25.27 L/h and the “Volume … Predicted Typical Value” ([5]; 6 y-<17 y) was 52.97 L. For the same compound, the “Weight-Adjusted CL, Predicted Typical Value” ([5]; 6 y-<17 y) was 14 mL/min/kg, the “Weight-Adjusted V, Predicted Typical Value” ([5]; 6 y-<17 y) was 1.754 L/kg and the “CL, Predicted Typical Value” ([5]; 12 months-<24 months) was 11.12 L/h. The “Volume … Predicted Typical Value” ([5]; 12 months-<24 months) was 23.85 L, the “Weight-Adjusted CL, Predicted Typical Value” ([5]; 12 months-<24 months) was 18.35 mL/min/kg and the “Weight-Adjusted V, Predicted Typical Value” ([5]; 12 months-<24 months) was 2.361 L/kg. The “CL, Predicted Typical Value” ([5]; 28 weeks GA-<1 month) was 2.69 L/h, the “Volume … Predicted Typical Value” ([5]; 28 weeks GA-<1 month) was 16.21 L and the “Weight-Adjusted CL, Predicted Typical Value” ([5]; 28 weeks GA-<1 month) was 15.6 mL/min/kg. For the same compound, the “Weight-Adjusted V, Predicted Typical Value” ([5]; 28 weeks GA-<1 month) was 5.618 L/kg, the clearance (clinical [6]; 0.05 ug/kg, CLw (clearance)) was 6.83 mL/min/kg and the AUC(0-t) (clinical [6]; AUC (0-Last)) was 0.708 ng·h/mL. It also gave a clearance (clinical [6]; CLw (weight adjusted clearance)) of 4.83 mL/min/kg, a Vd (clinical [6]; Vss) of 6.25 L and a half-life (clinical [6]; elimination t1/2) of 4.77 h. The half-life (clinical [6]; t1/2) was 8.32 h, the clearance (clinical [7]; CL, Population Mean) was 308 mL/min and the clearance (clinical [7]; CL, model value) was 142 mL/min. For the same compound, the clearance (clinical [7]; Weight-Adjusted CL, Geo. Mean of individual Bayesian estimates) was 16.5 mL/min/kg, the clearance (clinical [7]; Weight-Adjusted CL, Geometric Mean) was 16.5 mL/min/kg and the half-life (clinical [7]; terminal elimination (β) half-life) was 1.6 h. For the same compound, the pKa [8] was 7, the solubility in water [8] was “freely soluble in water” and the “pH of the isotonic solution” value ([8]; study drug as supplied) was 4.5.
